Assay results published in the supplement of paper PMC4862054.

How the values were obtained:
Assay in all cases: normalised viability (% of control), CellTiter-Blue; higher = more viable cells (about 100 = DMSO control)
BT-474 [1] = details: 100 nM; incubation time: 72 h
Procedure: (§1)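 DSRT, CellTiter-Blue viability, 72 h incubation. Signal is normalised to DMSO and benzethonium chloride controls. Value is the normalised response at dose 3.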

BT-549 [2] = details: 100 nM; incubation time: 72 h
Procedure: as §1

CAL-120 [3] = details: 100 nM; incubation time: 72 h
Procedure: as §1

CAL-148 [4] = details: 10 nM; incubation time: 72 h
Procedure: as §1

CAL-51 [5] = details: 10 nM; incubation time: 72 h
Procedure: as §1

CAL-85-1 [6] = details: 10 nM; incubation time: 72 h
Procedure: as §1

DU-4475 [7] = details: 10 nM; incubation time: 72 h
Procedure: as §1

HCC1143 [8] = details: 100 nM; incubation time: 72 h
Procedure: as §1

HCC1599 [9] = details: 100 nM; incubation time: 72 h
Procedure: as §1

HCC1937 [10] = details: 100 nM; incubation time: 72 h
Procedure: as §1

HDQ-P1 [11] = details: 10 nM; incubation time: 72 h
Procedure: as §1

Hs578T [12] = details: 100 nM; incubation time: 72 h
Procedure: as §1

MDA-MB-231 [13] = details: 100 nM; incubation time: 72 h
Procedure: as §1

MDA-MB-436 [14] = details: 100 nM; incubation time: 72 h
Procedure: as §1

MDA-MB-453 [15] = details: 10 nM; incubation time: 72 h
Procedure: as §1

MDA-MB-468 [16] = details: 100 nM; incubation time: 72 h
Procedure: as §1

MFM-223 [17] = details: 100 nM; incubation time: 72 h
Procedure: as §1

SK-BR-3 [18] = details: 100 nM; incubation time: 72 h
Procedure: as §1

BT-474 [19] = details: incubation time: 72 h
Outline: (§2)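 After 72 h on compound-loaded 384-well plates, breast cancer cell lines received 2.5 µl CellTiter-Blue reagent for 2 h at 37 °C. Fluorescence at 560/590 nm was scaled per plate so that vehicle was 100 and a positive kill control was 0. The value stands for normalised viability at a single listed concentration of the series.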

BT-549 [20] = details: incubation time: 72 h
Outline: as §2

CAL-120 [21] = details: incubation time: 72 h
Outline: as §2

CAL-148 [22] = details: incubation time: 72 h
Outline: as §2

CAL-51 [23] = details: incubation time: 72 h
Outline: as §2

CAL-85-1 [24] = details: incubation time: 72 h
Outline: as §2

DU-4475 [25] = details: incubation time: 72 h
Outline: as §2

HCC1143 [26] = details: incubation time: 72 h
Outline: as §2

HCC1599 [27] = details: incubation time: 72 h
Outline: as §2

HCC1937 [28] = details: incubation time: 72 h
Outline: as §2

HDQ-P1 [29] = details: incubation time: 72 h
Outline: as §2

Hs578T [30] = details: incubation time: 72 h
Outline: as §2

MDA-MB-231 [31] = details: incubation time: 72 h
Outline: as §2

MDA-MB-436 [32] = details: incubation time: 72 h
Outline: as §2

MDA-MB-453 [33] = details: incubation time: 72 h
Outline: as §2

MDA-MB-468 [34] = details: incubation time: 72 h
Outline: as §2

MFM-223 [35] = details: incubation time: 72 h
Outline: as §2

SK-BR-3 [36] = details: incubation time: 72 h
Outline: as §2

C[C@@H](CN1CC(=O)NC(=O)C1)N1CC(=O)NC(=O)C1 [Dexrazoxane]
Details	normalised viability [%]
BT-474 [1]	107
BT-549 [2]	78.5
CAL-51 [5]	95.6
CAL-85-1 [6]	110
CAL-120 [3]	91.8
CAL-148 [4]	85
DU-4475 [7]	110
HCC1143 [8]	88.6
HCC1599 [9]	124
HCC1937 [10]	103
HDQ-P1 [11]	91
Hs578T [12]	89
MDA-MB-231 [13]	96.6
MDA-MB-436 [14]	101
MDA-MB-453 [15]	94.6
MDA-MB-468 [16]	109
MFM-223 [17]	93.3
SK-BR-3 [18]	61

normalised viability [%]
Details	3 nM	10 nM	30 nM	100 nM	1000 nM	10000 nM
BT-474 [19]	–	100	–	–	101	114
BT-549 [20]	–	87.2	–	–	79.2	76.8
CAL-51 [23]	93.9	–	96.1	92.8	–	–
CAL-85-1 [24]	98.4	–	93.7	96.7	–	–
CAL-120 [21]	–	90.1	–	–	100	100
CAL-148 [22]	84.4	–	92.6	91.5	–	–
DU-4475 [25]	103	–	97.4	104	–	–
HCC1143 [26]	–	88	–	–	94.5	99.6
HCC1599 [27]	–	123	–	–	93.3	115
HCC1937 [28]	–	99.1	–	–	82	92.3
HDQ-P1 [29]	108	–	107	44.3	–	–
Hs578T [30]	–	87.7	–	–	88.8	92.1
MDA-MB-231 [31]	–	95	–	–	96.6	107
MDA-MB-436 [32]	–	91.8	–	–	95.8	95.6
MDA-MB-453 [33]	104	–	103	101	–	–
MDA-MB-468 [34]	–	101	–	–	97.4	100
MFM-223 [35]	–	95.2	–	–	91.2	93
SK-BR-3 [36]	–	93.8	–	–	105	103
